Data published in patent US10213409B2, “Substituted benzofurans, benzothiophenes, benzoselenophenes and indoles and their use as tubulin polymerisation inhibitors” (Bionomics Limited, priority 2006, dated 2019).

Tests used:
Format in all cases: cell-based
[1] = tested on: Human umbilical vein endothelial cells (HUVECs), tumour type activated (Tum); assay: Proliferation Assay - Activated Endothelium (MTT); conditions: for IC50: Homo sapiens, HUVEC, tumour type activated endothelial cells; for potency towards activated (tumour) versus quiescent (normal) endothelial cells: comparison of activated and quiescent HUVEC assays, FIGS. 1 and 2, Table 1
Protocol: Proliferation Assay—Activated Endothelium:
(§1) Cells were cultured overnight at 37° C. 5% CO2. Medium was subsequently replaced with fresh medium including the compound or negative control. Cells were cultured for a period of 48 hrs. An MTT assay was performed to measure changes in cell numbers. Briefly, 20 μl of MTT reagent was added to cells containing 100 μl of EGM2 and incubated at 37° C. for 2 hours.

[2] = tested on: MDA-MB-231; assay: Growth inhibition, Sulforhodamine B (SRB) or Systmex cell counting (CC) assay, MDA-MB-231; conditions: Homo sapiens; MDA-MB-231 (footnote b); concentration required to inhibit net cell growth by 50%; read-out: Cancer cell line IC50
[3] = tested on: Human umbilical vein endothelial cells (HUVECs), normal quiescent type (Norm); assay: Proliferation Assay - Quiescent Endothelium (MTT); conditions: HUVEC
Protocol: Proliferation Assay—Quiescent Endothelium:
as §1, with “EBM2+0.5% FBS” for “EGM2”

[4] = tested on: MCF-7; assay: Growth inhibition, Sulforhodamine B (SRB) or Systmex cell counting (CC) assay, MCF-7; conditions: Homo sapiens, MCF7, concentration required to inhibit net cell growth by 50%, read-out: Cancer cell line IC50

IC50 [2] [nM] | IC50 [4] [nM] | Compound | IC50 [1] [nM] | IC50 [3] [nM] | potency towards activated (tumour) versus quiescent (normal) endothelial cells [1]
1 to 10 |  | COc1cc(C(=O)c2c(Nc3cccnc3)oc3c(O)c(OC)ccc23)cc(OC)c1OC [Example 25, [7-Hydroxy-6-methoxy-2-(pyridin-3-ylamino)-benzofuran-3-yl]-(3,4,5-trimethoxy-phenyl)-methanone] | 1 to 10 | 1 to 10 | 
1 to 10 |  | COC(=O)c1oc2c(O)c(OC)ccc2c1C(=O)c1cc(OC)c(OC)c(OC)c1 [Example 17, 7-Hydroxy-6-methoxy-3-(3,4,5-trimethoxy-benzoyl)-benzofuran-2-methylcarboxylate] | 1 to 10 | 1 to 10 | 
1 to 10 |  | COc1cc(C(=O)c2c(NCCO)oc3c(O)c(OC)ccc23)cc(OC)c1OC [Example 20, [7-Hydroxy-2-(2-hydroxy-ethylamino)-6-methoxy-benzofuran-3-yl]-(3,4,5-trimethoxy-phenyl)methanone] | 1 to 10 | 1 to 10 | 
1 to 10 |  | COC(=O)CNc1oc2c(O)c(OC)ccc2c1C(=O)c1cc(OC)c(OC)c(OC)c1 [Example 24, [7-Hydroxy-6-methoxy-3-(3,4,5-trimethoxy-benzoyl)-benzofuran-2-ylamino]-acetic acid methyl ester] | 1 to 10 | 1 to 10 | 
1 to 10 |  | COc1cc(C(=O)c2c(N(C)C)oc3c(O)c(OC)ccc23)cc(OC)c1OC [Example 22, (2-N,N′-Dimethylamino-7-hydroxy-6-methoxy-benzofuran-3-yl)-(3,4,5-trimethoxy-phenyl)-methanone] | 1 to 10 | 1 to 10 | 
1 to 10 |  | COc1cc(C(=O)c2c(/C=C/C(N)=O)oc3c(O)c(OC)ccc23)cc(OC)c1OC [Example 15, (E)-3-[7-Hydroxy-6-methoxy-3-(3,4,5-trimethoxy-benzoyl)benzofuran-2-yl]-acrylamide] | 1 to 10 | 1 to 10 | higher potency towards tumour endothelial cells (activated) over normal endothelial cells (quiescent)
 | 1.2 | COc1cc(C(=O)c2c(SC)oc3c(O)c(OC)ccc23)cc(OC)c1OC [Example 9, 7-Hydroxy-6-methoxy-2-methylsulfanyl-3-(3,4,5-trimethoxybenzoyl)benzofuran] | 0.1 to 1 | 1 to 10 | higher potency towards tumour endothelial cells (activated) over normal endothelial cells (quiescent)
 | 500 | COc1ccc2c(C(=O)c3cc(OC)c(OC)c(OC)c3)c(Br)oc2c1 [Example 3, 2-Bromo-3-(3,4,5-trimethoxybenzoyl)-6-methoxybenzofuran, reference compound] | 100 to 1000 | 100 to 1000 | 
10 to 100 |  | COc1cc(C(=O)c2c(NCCN(C)C)oc3c(O)c(OC)ccc23)cc(OC)c1OC [Example 21] | 10 to 100 | 10 to 100 | 
 | 260 | COc1cc(C(=O)c2c(NCC(=O)O)oc3c(O)c(OC)ccc23)cc(OC)c1OC [Example 23, [7-hydroxy-6-methoxy-3(3,4,5-trimethoxy-benzoyl)-benzofuran-2-ylamino]acetic acid] | 100 to 1000 | 100 to 1000 | 
 | 45 | COc1cc(C(=O)c2coc3c(O)c(OC)ccc23)cc(OC)c1OC [Example 6, 3-(3,4,5-Trimethoxybenzoyl)-6-methoxy-7-hydroxybenzofuran] | 10 to 100 | 10 to 100 | 

Compound | IC50 [2] [nM] | IC50 [4] [nM] | IC50 [1] [nM] | IC50 [3] [nM] | potency towards activated (tumour) versus quiescent (normal) endothelial cells [1]
COc1cc(C(=O)c2coc3c(N)c(OC)ccc23)cc(OC)c1OC [Example 2, (7-Amino-6-methoxybenzofuran-3-yl)(3,4,5-trimethoxyphenyl)methanone] | 1 to 10 |  | 1 to 10 | 1 to 10 | 
